We go through 1 compound from ChEMBL document CHEMBL5137061, “Design and Measurement of Drug Tissue Concentration Asymmetry and Tissue Exposure-Effect (Tissue PK-PD) Evaluation” (J Med Chem, 2022).

Data set [1] can be described thus: Tmax in BALBnu/CrlCrlj mouse xenografted with human KM12 cell tumor at 0.06 to 0.6 mg/kg, po measured after 48 hrs. Conditions: in vivo, dose 0.06-0.6 mg/kg. It is filed as ADME, organism-based. A general note: In xenograft studies the graft and the host belong to different species.
Data set [2] is described as follows: Tmax in BALBnu/CrlCrlj mouse at 0.1 to 1 mg/kg, po measured for 1 to 24 hrs. Format: ADME, organism-based. Conditions: in vivo, dose lower 0.1 mg/kg, time lower 1 hrs, dose upper 1 mg/kg, time upper 24 hrs.

Each structure is given as a SMILES string.

What is called Tmax is the time from dosing to the highest level. Regarding `CS(=O)(=O)c1ccc(C(F)(F)F)cc1NC(=O)Nc1cnc(Oc2ccc(-c3cc(Cl)cnc3N)cc2)nc1` [ONO-7579], the figures for the Tmax in data set [1] and in data set [2] were 7 h and 2 h, respectively.
